Our source for the Ki values is patent US10421750B2, “Substituted morpholine derivatives having activity against pain” (ESTEVE PHARMACEUTICALS, S.A., priority 2015, dated 2019).

Chain of human σ1 receptor (Q99720 whole entry): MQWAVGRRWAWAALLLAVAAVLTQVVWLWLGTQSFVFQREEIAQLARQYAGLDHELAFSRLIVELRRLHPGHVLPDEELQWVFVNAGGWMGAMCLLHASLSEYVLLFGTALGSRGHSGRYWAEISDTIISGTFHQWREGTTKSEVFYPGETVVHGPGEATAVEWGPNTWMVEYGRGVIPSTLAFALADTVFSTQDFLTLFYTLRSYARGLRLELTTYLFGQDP

The target in this test is human σ1 receptor (Homo sapiens (Human), UniProt Q99720). As to the kind of experiment: Human σ1 receptor radioligand assay ([3H](+)-pentazocine, transfected HEK-293 membranes). Conditions: binding to the σ1 receptor expressed as Ki, [3H](+)-pentazocine 5 nM. On the procedure:
Human σ1 Receptor Radioligand Assay
To investigate binding properties of test compounds to human σ1 receptor, transfected HEK-293 membranes and [^3H](+)-pentazocine (Perkin Elmer, NET-1056), as the radioligand, were used. The assay was carried out with 7 μg of membrane suspension, 5 nM of [^3H](+)-pentazocine in either absence or presence of either buffer or 10 μM Haloperidol for total and non-specific binding, respectively. Binding buffer contained Tris-HCl 50 mM at pH 8. Plates were incubated at 37° C. for 120 minutes. After the incubation period, the reaction mix was then transferred to MultiScreen HTS, FC plates (Millipore), filtered and plates were washed 3 times with ice-cold 10 mM Tris-HCL (pH7.4). Filters were dried and counted at approximately 40% efficiency in a MicroBeta scintillation counter (Perkin-Elmer) using EcoScint liquid scintillation cocktail
`COc1ccc(CN2CC(C3CCN(CCc4ccccc4)CC3)OC3(CC3)C2=O)cc1` (stereo not shown) [Example 1, 7-(4-Methoxybenzyl)-5-(1-phenethylpiperidin-4-yl)4-oxa-7-azaspiro[2.5]octan-8-one] had a Ki of at least 500 nM. Then `O=C(c1ccccc1)N1CC(C2CCN(CCc3ccccc3)CC2)OC2(CC2)C1` (stereo not shown) [Example 2, (5-(1-phenethylpiperidin-4-yl)-4-oxa-7-azaspiro[2.5]octan-7-yl)(phenyl)methanone], with below 500 nM; and `COc1ccc(CN2CC(C3CCN(Cc4ccccc4)CC3)OC3(CC3)C2=O)cc1` (stereo not shown) [Example 3, 5-(1-Benzylpiperidin-4-yl)-7-(4-methoxybenzyl)-4-oxa-7-azaspiro[2.5]octan-8-one], with below 500 nM. The result for `O=C(c1ccccc1)N1CC(C2CCN(Cc3ccccc3)CC2)OC2(CC2)C1` (stereo not shown) [Example 4, (5-(1-benzylpiperidin-4-yl)-4-oxa-7-azaspiro[2.5]octan-7-yl)(phenyl)methanone] reads below 100 nM. Then `CCN1CC(C2CCN(Cc3ccccc3)CC2)OC2(CC2)C1=O` (stereo not shown) [Example 5, 5-(1-benzylpiperidin-4-yl)-7-ethyl-4-oxa-7-azaspiro[2.5]octan-8-one], with below 100 nM; and `CCN1CCC(C2CN(Cc3ccc(OC)cc3)C(=O)C3(CC3)O2)CC1` (stereo not shown) [Example 6, 5-(1-ethylpiperidin-4-yl)-7-(4-methoxybenzyl)-4-oxa-7-azaspiro[2.5]octan-8-one], with at least 500 nM. For the compound `CCN1CC(C2CCN(CCc3ccccc3)CC2)OC2(CC2)C1=O` (stereo not shown) [Example 7, 7-Ethyl-5-(1-phenethylpiperidin-4-yl)-4-oxa-7-azaspiro[2.5]octan-8-one], the Ki is below 500 nM.

Turning to `CC(C)N1CC(C2CCN(CCc3ccccc3)CC2)OC2(CC2)C1=O` (stereo not shown) [Example 8, 7-isopropyl-5-(1-phenethylpiperidin-4-yl)-4-oxa-7-azaspiro[2.5]octan-8-one], the Ki was below 500 nM. The result for `O=C1N(c2ccccc2)CC(C2CCN(CCc3ccccc3)CC2)OC12CC2` (stereo not shown) [Example 9, 5-(1-Phenethylpiperidin-4-yl)-7-phenyl-4-oxa-7-azaspiro[2.5]octan-8-one] reads at least 500 nM. The compound `O=C1N(c2ccccc2)CC(C2CCN(Cc3ccccc3)CC2)OC12CC2` (stereo not shown) [Example 10, 5-(1-benzylpiperidin-4-yl)-7-phenyl-4-oxa-7-azaspiro[2.5]octan-8-one] displayed a Ki below 500 nM. The result for `CCN1CC(C2CCN(CCc3ccccc3)CC2)OC2(CC2)C1` (stereo not shown) [Example 11, 7-Ethyl-5-(1-phenethylpiperidin-4-yl)-4-oxa-7-azaspiro[2.5]octane] reads below 500 nM; that for `COc1ccc(CN2CC(C3CCN(Cc4ccccc4)CC3)OC3(CC3)C2)cc1` (stereo not shown) [Example 12, 5-(1-benzylpiperidin-4-yl)-7-(4-methoxybenzyl)-4-oxa-7-azaspiro[2.5]octane], below 100 nM. The compound `COc1ccc(CN2CC(C3CCN(CCc4ccccc4)CC3)OC3(CC3)C2)cc1` (stereo not shown) [Example 13, 7-(4-methoxybenzyl)-5-(1-phenethylpiperidin-4-yl)-4-oxa-7-azaspiro[2.5]octane] had a Ki of at least 500 nM. Then `CCN1CC(C2CCN(Cc3ccccc3)CC2)OC2(CC2)C1` (stereo not shown) [Example 14, 5-(1-benzylpiperidin-4-yl)-7-ethyl-4-oxa-7-asazaspiro[2.5]octane], with below 100 nM; and `COc1ccc(CN2CC(C3CCN(CC(C)C)CC3)OC3(CC3)C2=O)cc1` (stereo not shown) [Example 15, 5-(1-isobutylpiperidin-4-yl)-7-(4-methoxybenzyl)-4-oxa-7-azaspiro[2.5]octan-8-one], with at least 500 nM; and `COc1ccc(CN2CC(C3CCN(CCC(C)C)CC3)OC3(CC3)C2=O)cc1` (stereo not shown) [Example 16, 5-(1-isopentylpiperidin-4-yl)-7-(4-methoxybenzyl)-4-oxa-7-azaspiro[2.5]octan-8-one], with below 500 nM.

Compound `COc1ccc(CN2CC(C3CCN(Cc4ccccc4)CC3)OCC2=O)cc1` (stereo not shown) [Example 21, 6-(1-benzylpiperidin-4-yl)-4-(4-methoxybenzyl)morpholin-3-one] registered a Ki below 500 nM. The result for `CCN1CC(C2CN(CCC(C)C)C2)OC2(CC2)C1=O` (stereo not shown) [Example 22, 7-ethyl-5-(1-isopentylazetidin-3-yl)-4-oxa-7-azaspiro[2.5]octan-8-one] reads below 500 nM. `CCN1C[C@@H](C2CCN(Cc3ccccc3)CC2)O[C@@H](C)C1=O` [Example 23, (2S,6R)-6-(1-benzylpiperidin-4-yl)-4-ethyl-2-methylmorpholin-3-one]: the Ki was at least 500 nM.

`CCN1C[C@H](C2CCN(Cc3ccccc3)CC2)O[C@@H](C)C1=O` [Example 24, (2S,6S)-6-(1-benzylpiperidin-4-yl)-4-ethyl-2-methylmorpholin-3-one] yielded a Ki of at least 500 nM. `CCN1C[C@@H](C2CCN(Cc3ccccc3)CC2)O[C@H](C)C1=O` [Example 25, (2R,6R)-6-(1-benzylpiperidin-4-yl)-4-ethyl-2-methylmorpholin-3-one] gave a Ki of at least 500 nM. Then `CCN1C[C@H](C2CCN(Cc3ccccc3)CC2)O[C@H](C)C1=O` [Example 26, (2R,6S)-6-(1-benzylpiperidin-4-yl)-4-ethyl-2-methylmorpholin-3-one], with at least 500 nM. Then `CCN1C[C@@H](C2CCN(Cc3ccc(F)cc3)CC2)O[C@@H](C)C1=O` [Example 27, (2S,6R)-4-ethyl-6-(1-(4-fluorobenzyl)piperidin-4-yl)-2-methylmorpholin-3-one], with at least 500 nM; and `CCN1C[C@H](C2CCN(Cc3ccc(F)cc3)CC2)O[C@@H](C)C1=O` [Example 28, (2S,6S)-4-ethyl-6-(1-(4-fluorobenzyl)piperidin-4-yl)-2-methylmorpholin-3-one], with at least 500 nM. Turning to `CCN1C[C@@H](C2CCN(Cc3ccc(F)cc3)CC2)O[C@H](C)C1=O` [Example 29, (2R,6R)-4-ethyl-6-(1-(4-fluorobenzyl)piperidin-4-yl)-2-methylmorpholin-3-one], the Ki was at least 500 nM. Then `CCN1C[C@H](C2CCN(Cc3ccc(F)cc3)CC2)O[C@H](C)C1=O` [Example 30, (2R,6S)-4-ethyl-6-(1-(4-fluorobenzyl)piperidin-4-yl)-2-methylmorpholin-3-one], with at least 500 nM. The result for `CCN1C[C@@H](C2CCN(Cc3ccc(C#N)cc3)CC2)O[C@@H](C)C1=O` [Example 31, 4-((4-((2R,6S)-4-ethyl-6-methyl-5-oxomorpholin-2-yl)piperidin-1-yl)methyl)benzonitrile] reads at least 500 nM; that for `CCN1C[C@H](C2CCN(Cc3ccc(C#N)cc3)CC2)O[C@@H](C)C1=O` [Example 32, 4-((4-((2S,6S)-4-ethyl-6-methyl-5-oxomorpholin-2-yl)piperidin-1-yl)methyl)benzonitrile], at least 500 nM. The result for `CCN1C[C@@H](C2CCN(Cc3ccc(C#N)cc3)CC2)O[C@H](C)C1=O` [Example 33, 4-((4-((2R,6R)-4-ethyl-6-methyl-5-oxomorpholin-2-yl)piperidin-1-yl)methyl)benzonitrile] reads at least 500 nM. `CCN1C[C@H](C2CCN(Cc3ccc(C#N)cc3)CC2)O[C@H](C)C1=O` [Example 34, 4-((4-((2S,6R)-4-ethyl-6-methyl-5-oxomorpholin-2-yl)piperidin-1-yl)methyl)benzonitrile]: the Ki is at least 500 nM. The result for `CCN1CC(C2CCN(Cc3ccc(F)cc3)CC2)OC2(CC2)C1=O` (stereo not shown) [Example 35, 7-ethyl-5-(1-(4-fluorobenzyl)piperidin-4-yl)-4-oxa-7-azaspiro[2.5]octan-8-one] reads at least 500 nM.

Broadly, the Ki is a measure of affinity in units of concentration, obtained from inhibition or displacement.
